{"source": "paper PMC12037037", "about": "(Proceedings of the National Academy of Sciences of the …, 2025)", "key": {"[1]": {"target": "T1, human 5-HT2B receptor (Homo sapiens, UniProt P41595)", "T1 construct": "host or cells: CHO", "T1 sequence (P41595 whole entry)": "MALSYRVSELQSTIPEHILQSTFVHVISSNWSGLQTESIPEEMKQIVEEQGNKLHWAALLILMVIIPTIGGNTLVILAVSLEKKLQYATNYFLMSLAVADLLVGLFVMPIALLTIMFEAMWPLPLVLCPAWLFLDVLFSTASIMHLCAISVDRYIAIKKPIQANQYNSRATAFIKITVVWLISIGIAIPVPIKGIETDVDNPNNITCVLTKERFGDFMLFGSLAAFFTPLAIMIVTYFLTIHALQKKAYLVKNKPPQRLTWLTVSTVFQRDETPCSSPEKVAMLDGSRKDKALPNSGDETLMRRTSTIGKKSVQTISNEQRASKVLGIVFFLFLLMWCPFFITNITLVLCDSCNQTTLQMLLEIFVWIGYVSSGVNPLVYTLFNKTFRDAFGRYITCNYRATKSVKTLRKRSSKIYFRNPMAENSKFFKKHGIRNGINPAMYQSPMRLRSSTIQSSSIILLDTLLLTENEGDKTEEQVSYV", "experiment": "IP1 functional assay (5-HT2BR)", "format": "cell-based", "experimental": "IP1 Assay (5-HT2AR and 5-HT2CR). The 5-HT2AR and 5-HT2CR IPOne HTRF assays were performed at Epics\nTherapeutics S.A. (Belgium, FAST-0505I) using conventional methods. Experiments were performed using the free bases\nof (+)-JRT and (–)-JRT. Briefly, CHO-K1 cells expressing human recombinant 5-HT2AR grown to mid-log phase in culture\nmedia without antibiotics were detached with PBS-EDTA, centrifuged, and resuspended in medium without antibiotics\nbuffer. Then, 20,000 cells were distributed in a 96-well plate and incubated overnight at 37 °C with 5% CO2. For agonist\nwere added to each well. The plate was incubated for 60 min at 37 °C with 5% CO2. After addition of the lysis buffer containing\nIP1-d2 and anti-IP1 cryptate detection reagents, plates were incubated for 1 h at room temperature and fluorescence ratios\nwere measured according to the manufacturer’s specifications using the HTRF kit.\nIP1 Assay (5-HT2BR). […]\nFollowing incubation, the cells are lysed and the fluorescence acceptor (D2-\nlabeled IP1) and fluorescence donor (anti-IP1 antibody labeled with europium cryptate) were added. […]\ntemperature, the fluorescence transfer was measured at lex = 337 nm and lem = 620 and 665 nm using a microplate\nreader (Envision, Perkin Elmer). The IP1 concentration was determined by dividing the signal measured at 665 nm by that\nmeasured at 620 nm (ratio). […]"}, "[2]": {"test_system": "C57BL/6J mice", "experiment": "Sucrose preference test (SPT) after chronic CORT", "format": "in vivo", "details": "1 mg/kg IP, two injections 48 h apart, CORT-sensitive mice; main effect of treatment P = 0.0364", "procedure": "remained housed in groups of three for the remainder of the study. All rats were acclimated to the colony room for up to one week prior to dosing. During the period of acclimation, rats were examined and handled daily, and weighed to assure adequate health and suitability. The room temperature was maintained between 20 °C and 23 °C with a relative humidity of 30%–70%. Lab Rodent Diet 5001 (W.F. Fisher, Cat # 11015) and water were provided ad libitum. Animals were randomly assigned across treatment groups. All testing was performed during the light phase of the light/dark cycle. Behavioral testing was conducted according to established protocols approved by the IACUC committee and PGI Standard Operation Procedures (SOP). […] All animals were carefully monitored to ensure their safety in the swim test and any animal unable to maintain a posture with its nose above water was immediately removed from the water and not used further in the study. […] This test lasted for 5 min and was video recorded. A blinded experimenter manually scored the videos for swimming, climbing, and immobility behavior. Scoring of the forced swim test was performed by trained technicians using a time sampling technique in which the animal in the video recorded test was viewed every 5 seconds and the behavior observed was noted (e.g., immobile, swimming, or climbing). […]"}}, "data": [{"compound": "CCN(CC)C(=O)[C@@H]1C=C2c3cccc4ccn(c34)C[C@H]2N(C)C1", "note": "[(+)-JRT]", "values": [{"measurement": "Emax", "setting": "[1]", "result": 48, "unit": "%"}, {"measurement": "Effect on CORT-induced anhedonia (sucrose preference)", "setting": "[2]", "result": "rescued CORT-induced anhedonia"}]}]}
